# From EPA's ToxRefDB 2
# Assays:
# dog [1] = conditions: Chronic toxicity, beagle, Oral, Feed, dose end: 364 day, group: systemic
# rat [2] = conditions: Chronic toxicity; wistar; Oral; Feed; dose end: 364 day; group: systemic; systemic / pathology gross / eye / opacity + systemic / pathology microscopic / eye / corneal pannus + systemic / pathology microscopic / …
# rat [3] = conditions: Prenatal developmental toxicity study, wistar, Oral, Gavage/Intubation, dose end: 19 GD
# rat [4] = conditions: Multigenerational reproductive toxicity study, wistar, Oral, Feed, dose end: 2 generation
# rabbit [5] = conditions: Prenatal developmental toxicity study, new zealand white, Oral, Gavage/Intubation, dose end: 28 GD
# mouse [6] = conditions: Subchronic oral toxicity in rodents, other, Feed, dose end: 91 day, group: systemic
# rat [7] = conditions: Subchronic oral toxicity in rodents, wistar, Feed, dose end: 13 week, group: systemic
# rat [8] = conditions: Carcinogenicity, wistar, Oral, Feed, dose end: 24 month, group: systemic
# rabbit [9] = conditions: Prenatal developmental toxicity study, himalayan, Oral, Gavage/Intubation, dose end: 28 GD
# mouse [10] = conditions: Carcinogenicity, other, Oral, Feed, dose end: 78 week, group: systemic
# dog [11] = conditions: Subchronic oral toxicity in nonrodent, beagle, Feed, dose end: 90 day, group: systemic
# rat [12] = conditions: Subchronic oral toxicity in rodents, sprague dawley, Feed, dose end: 90 day, group: systemic, systemic / in life observation / clinical signs / soft stools + systemic / in life observation / clinical signs / defecation (diarrhea)
# rat [13] = conditions: Subchronic oral toxicity in rodents, fischer, Feed, dose end: 14 week, group: systemic
# mouse [14] = conditions: Subchronic oral toxicity in rodents, b6c3f1, Feed, dose end: 14 week, group: systemic
# rat [15] = conditions: Combined chronic toxicity/carcinogenicity, fischer, Oral, Feed, dose end: 2 year, group: systemic
# mouse [16] = conditions: Carcinogenicity; b6c3f1; Oral; Feed; dose end: 2 year; group: systemic; systemic / pathology microscopic / liver / hypertrophy
# [17] = systemic / in life observation / food consumption / food efficiency + systemic / urinalysis / ketones / ketones + systemic / urinalysis / ph…
# [18] = group: developmental, developmental / developmental malformation / bone / full supernumerary + developmental / developmental malformation / bone / misshapen + …
# [19] = group: maternal, systemic / in life observation / body weight / body weight gain
# [20] = group: offspring, systemic / organ weight / spleen / absolute + systemic / organ weight / spleen / relative to body weight
# [21] = group: parental, systemic / organ weight / kidney / absolute + systemic / organ weight / kidney / relative to body weight + systemic / organ weight / liver…
# [22] = group: parental, systemic / organ weight / thyroid gland / absolute
# [23] = group: developmental, developmental / developmental malformation / bone / ossification sites + developmental / developmental malformation / bone / supernumerary
# [24] = group: developmental, developmental / developmental malformation / bone / ossification sites + developmental / developmental malformation / bone / supernumerary…
# [25] = group: maternal, systemic / clinical chemistry / tyrosine / tyrosine
# [26] = systemic / in life observation / food consumption / food consumption + systemic / organ weight / testes / absolute + systemic / organ weight…
# [27] = systemic / pathology gross / thyroid gland / altered colloid
# [28] = systemic / in life observation / mortality / mortality + systemic / pathology gross / lymph node / enlarged + systemic / pathology gross / …
# [29] = group: developmental, developmental / developmental malformation / bone / [other] + developmental / developmental malformation / bone / incomplete ossification + …
# [30] = group: maternal, reproductive / reproductive performance / aborted / aborted + systemic / in life observation / body weight / body weight gain + systemic / …
# [31] = systemic / in life observation / body weight / body weight + systemic / in life observation / body weight / body weight gain
# [32] = systemic / in life observation / body weight / body weight + systemic / in life observation / body weight / body weight gain + systemic / …
# [33] = systemic / in life observation / body weight / body weight gain + systemic / in life observation / food consumption / food efficiency + …
# [34] = systemic / urinalysis / ketones / ketones
# [35] = systemic / clinical chemistry / alkaline phosphatase (alp/alk) / alkaline phosphatase (alp/alk)
# [36] = systemic / hematology / platelet / platelet
# [37] = systemic / in life observation / body weight / body weight + systemic / pathology microscopic / liver / hypertrophy
smiles,measurement,setting,value
Cc1c(C(=O)c2c[nH]n(C)c2=O)ccc(S(C)(=O)=O)c1C1=NOCC1 [Topramezone],LEL,dog [1]; [17],2.9 mg/kg/day
same,NEL,dog [1]; [17],< 2.9 mg/kg/day
same,LOAEL,dog [1]; systemic / pathology microscopic / thyroid gland / hyperplasia,15.3 mg/kg/day
same,NOAEL,dog [1]; systemic / pathology microscopic / thyroid gland / hyperplasia + systemic / in life observation / body weight / body weight + systemic / in …,2.9 mg/kg/day
same,LEL,rat [2],3.9 mg/kg/day
same,LOAEL,rat [2],3.9 mg/kg/day
same,NEL,rat [2],0.4 mg/kg/day
same,NOAEL,rat [2],0.4 mg/kg/day
same,LEL,rat [3]; [18],100 mg/kg/day
same,LOAEL,rat [3]; [18],100 mg/kg/day
same,NEL,rat [3]; [18],< 100 mg/kg/day
same,NOAEL,rat [3]; [18],< 100 mg/kg/day
same,LEL,rat [3]; [19],100 mg/kg/day
same,LOAEL,rat [3]; [19],100 mg/kg/day
same,NEL,rat [3]; [19],< 100 mg/kg/day
same,NOAEL,rat [3]; [19],< 100 mg/kg/day
same,NOAEL,"rat [4]; group: offspring, developmental / developmental landmark / preputial separation / preputial separation + developmental / offspring survival late / viability …",0.4 mg/kg/day
same,LOAEL,"rat [4]; group: offspring, developmental / developmental landmark / preputial separation / preputial separation + systemic / in life observation / body weight / litter…",4.2 mg/kg/day
same,LEL,rat [4]; [20],0.4 mg/kg/day
same,NEL,rat [4]; [20],< 0.4 mg/kg/day
same,LOAEL,rat [4]; [21],4.2 mg/kg/day
same,NOAEL,rat [4]; [21],0.4 mg/kg/day
same,LEL,rat [4]; [22],0.5 mg/kg/day
same,NEL,rat [4]; [22],< 0.5 mg/kg/day
same,LEL,rabbit [5]; [23],5 mg/kg/day
same,LOAEL,rabbit [5]; [23],5 mg/kg/day
same,NEL,rabbit [5]; [24],0.5 mg/kg/day
same,NOAEL,rabbit [5]; [24],0.5 mg/kg/day
same,LEL,rabbit [5]; [25],0.5 mg/kg/day
same,LOAEL,rabbit [5]; [25],0.5 mg/kg/day
same,NEL,rabbit [5]; [25],< 0.5 mg/kg/day
same,NOAEL,rabbit [5]; [25],< 0.5 mg/kg/day
same,LOAEL,mouse [6]; [26],> 2290 mg/kg/day
same,NOAEL,mouse [6]; [26],≥ 2290 mg/kg/day
same,LEL,mouse [6]; systemic / organ weight / liver / relative to body weight,406 mg/kg/day
same,NEL,mouse [6]; systemic / organ weight / liver / relative to body weight + systemic / in life observation / body weight / body weight gain + systemic / in …,51 mg/kg/day
same,LEL,rat [7]; [27],1.1 mg/kg/day
same,NEL,rat [7]; [27],< 1.1 mg/kg/day
same,LOAEL,rat [7]; systemic / pathology microscopic / pancreas / degeneration,2.1 mg/kg/day
same,NOAEL,rat [7]; systemic / pathology microscopic / pancreas / degeneration + systemic / clinical chemistry / alkaline phosphatase (alp/alk) / alkaline …,1.1 mg/kg/day
same,LEL,rat [8]; [28],0.4 mg/kg/day
same,NEL,rat [8]; [28],< 0.4 mg/kg/day
same,NOAEL,rat [8]; [28],0.4 mg/kg/day
same,LOAEL,rat [8]; systemic / pathology microscopic / thyroid gland / hyperplasia + systemic / pathology microscopic / thyroid gland / hypertrophy + systemic…,3.6 mg/kg/day
same,LEL,rabbit [9]; [29],50 mg/kg/day
same,LOAEL,rabbit [9]; [29],50 mg/kg/day
same,NEL,rabbit [9]; [29],< 50 mg/kg/day
same,NOAEL,rabbit [9]; [29],< 50 mg/kg/day
same,LEL,rabbit [9]; [30],450 mg/kg/day
same,LOAEL,rabbit [9]; [30],450 mg/kg/day
same,NEL,rabbit [9]; [30],150 mg/kg/day
same,NOAEL,rabbit [9]; [30],150 mg/kg/day
same,LOAEL,mouse [10]; [31],19 mg/kg/day
same,NOAEL,mouse [10]; [31],< 19 mg/kg/day
same,LEL,mouse [10]; [32],19 mg/kg/day
same,NEL,mouse [10]; [32],< 19 mg/kg/day
same,LOAEL,dog [11]; [33],1510 mg/kg/day
same,NOAEL,dog [11]; [33],535 mg/kg/day
same,LEL,dog [11]; [34],182 mg/kg/day
same,NEL,dog [11]; [34],< 182 mg/kg/day
CCCCCC[C@H]1C(=O)O[C@H](C)[C@H](NC(=O)c2cccc(NC=O)c2O)C(=O)O[C@@H](C)[C@@H]1OC(=O)CC(C)C [Antimycin A],LEL,rat [12],0.5 mg/kg/day
same,LOAEL,rat [12],0.5 mg/kg/day
same,NEL,rat [12],< 0.5 mg/kg/day
same,NOAEL,rat [12],< 0.5 mg/kg/day
"O=S(=O)(c1ccc(Cl)cc1)c1ccc(Cl)cc1 [4,4'-Dichlorodiphenyl sulfone]",LEL,rat [13]; [35],2 mg/kg/day
same,NEL,rat [13]; [35],< 2 mg/kg/day
same,NOAEL,rat [13]; systemic / organ weight / liver / absolute + systemic / organ weight / liver / relative to body weight + systemic / clinical chemistry / …,2 mg/kg/day
same,LOAEL,rat [13]; systemic / organ weight / liver / absolute + systemic / organ weight / liver / relative to body weight + systemic / pathology microscopic / …,6 mg/kg/day
same,LEL,mouse [14]; [36],3.5 mg/kg/day
same,NEL,mouse [14]; [36],< 3.5 mg/kg/day
same,LOAEL,mouse [14]; [32],50 mg/kg/day
same,NOAEL,mouse [14]; [32],15 mg/kg/day
same,LEL,rat [15]; systemic / in life observation / body weight / body weight,1.5 mg/kg/day
same,NEL,rat [15]; [37],0.5 mg/kg/day
same,NOAEL,rat [15]; [37],1.5 mg/kg/day
same,LOAEL,rat [15]; systemic / pathology microscopic / liver / hypertrophy,5 mg/kg/day
same,LEL,mouse [16],3.8 mg/kg/day
same,LOAEL,mouse [16],3.8 mg/kg/day
same,NEL,mouse [16],< 3.8 mg/kg/day
same,NOAEL,mouse [16],< 3.8 mg/kg/day
